Tests used:
[1] = test system: Ras-GTP; test: steady-state Ras-GTP, GST-RBD pull-down assay; assay type: cell-based, human; conditions: 75 μM FTS, 48 hours, TS265P21, 90-8, and ST88-14 cells, P<0.03
Protocol: (§1) Unless otherwise indicated, cells were lysed 48 hours after being treated with lysis buffer, as described in Haklai, et al., supra. […] Protein bands were visualized by ECL and quantified by densitometry with Image Master VDS-CL (Amersham) using TINA 2.0 software (Ray Tests). To obtain reliable comparisons between replicated experiments for statistical analysis, a standardization procedure was used, in which the density of each given protein band as recorded with its specific Ab, was normalized. […] The standard average density was defined as 1.0, and each of the individually determined bands was related to this value. […] Actin cytoskeletal elements were labeled with rhodamine-phalloidin, and digital fluorescence images were collected on a Zeiss LSM 510 confocal microscope fitted with fluorescein and rhodamine filters, as described in Gana-Weisz, M., et al., supra.
To determine whether the steady-state levels of active Ras in the MPNST cell lines correlated with neurofibromin deficiency, the GST-Ras binding domain of Raf-1 (RBD) pull-down assay and Western immunoblotting with anti-Ras Ab was performed. […] Thus, the relatively large amounts of Ras-GTP detected in the MPNST cell lines and the relatively small amounts in the non-NF-1 MPNST (FIG. 1D) correlated well with the observed neurofibromin deficiency (FIG. 1C). […]

[2] = test system: ST88-14 cells; test: soft agar assay, anchorage-independent growth; assay type: cell-based; conditions: Homo sapiens, 504 h, 3 weeks, read-out: inhibition of colony formation
Protocol: (§2) Noble agars (2% and 0.6%; Difco, Sparks, Md.) were prepared in double-distilled water and autoclaved. The 2% agar was melted and mixed with medium (DMEM X2 with 20% FCS, 100 μg/mL penicillin, and […]) and the mixture (50 μL) was placed in 96-well plates to provide the base agar (at a final concentration of 1%).
(§3) To determine whether FTS inhibited the transforming activity associated with NF-1-deficiency and to determine the effect of FTS on anchorage-independent growth, soft agar assays were performed. ST88-14 and STS26T cells were plated in soft agar and then treated with 0.1% DMSO as a control or with FTS (25 μM, 50 μM, or 75 μM) and grown for 3 weeks or 2 weeks, respectively. […] FTS inhibited colony formation of both cell lines; in the presence of 50 μM FTS, for example, colony formation was inhibited by 60% in STS26T cells and by 57% in ST88-14 cells. In the presence of 75 μM FTS, colony formation was inhibited by 84% and 87% in ST88-14 and STS26T cells, respectively.

[3] = test system: STS26T cells; test: soft agar assay, anchorage-independent growth; assay type: cell-based; conditions: Homo sapiens, STS-26T, 336 h, 2 weeks, read-out: inhibition of colony formation
Protocol: as §2, §3

[4] = test system: Ras, ERK, or Akt; test: total Ras, ERK, Akt in serum-stimulation experiment; assay type: cell-based, human; conditions: STS26T cells, serum-stimulation conditions
Protocol: as §1
First, the time courses of serum-stimulated GTP loading of Ras and serum-stimulated activation of signals downstream of Ras were determined. […]

[5] = test system: Ras; test: steady-state Ras levels, Western immunoblotting; assay type: cell-based, human; conditions: 75 μM FTS, 48 hours, all cell lines, P<0.05
Protocol: Unless otherwise indicated, cells were lysed 48 hours after being treated with lysis buffer, as described in Haklai, et al., supra. […] Protein bands were visualized by ECL and quantified by densitometry with Image Master VDS-CL (Amersham) using TINA 2.0 software (Ray Tests). To obtain reliable comparisons between replicated experiments for statistical analysis, a standardization procedure was used, in which the density of each given protein band as recorded with its specific Ab, was normalized. […] The standard average density was defined as 1.0, and each of the individually determined bands was related to this value. […] Actin cytoskeletal elements were labeled with rhodamine-phalloidin, and digital fluorescence images were collected on a Zeiss LSM 510 confocal microscope fitted with fluorescein and rhodamine filters, as described in Gana-Weisz, M., et al., supra. […]

`CC(C)=CCC/C(C)=C/CC/C(C)=C/CSc1ccccc1C(=O)O` [FTS, S-farnesylthiosalicylic acid] was tested, and the “reduction in steady-state levels of Ras-GTP” value [1] was 25%-55%, the inhibition at 50 µM ([2]; 50 μM FTS) was 57% and the inhibition at 75 µM ([2]; 75 μM FTS) was 84%. For the same compound, the inhibition at 50 µM ([3]; 50 μM FTS) was 60%, the inhibition at 75 µM ([3]; 75 μM FTS) was 87% and the “total amounts of Ras, ERK, or Akt” value [4] was “no effect”. For the same compound, the “reduction in Ras levels” value [5] was 15-30%.
